{"source": "patent US20030022826A1", "about": "“Use of synthetic peptides to induce tolerance to pathogenic T and B cell epitopes of autoantigens or infectious agents” (priority 1987, published 2003)", "key": {"[1]": {"system": "circulating chimpanzee T, B or NK cell populations", "assay": "Absolute numbers of lymphocytes and lymphocyte subsets by flow cytometry during immunization", "format": "in vivo", "details": "for B cells, % Change / T cells, % Change / Total Lymphocytes, % Change / NK cells, % Change: before vs during immunization; for average drop of T cell levels: during the immunization period; for B cells, During / NK cells, During / T cells, During / Total Lymphocytes, During: mean, months 2-14 of immunization, n = 11", "description": "Flow Cytometry: Chimpanzee PB mononuclear cells were studied by standard flow cytometry methods using a flow cytometer (751; Coulter Electronics, Inc., Hialeah, Fla.). PB lymphocytes were identified by the following markers; total T cells, CD3; T cell subunits, CD4 and CD8; B cells, CD19; and NK cells, CD56 and CD16."}, "[2]": {"system": "PHA", "assay": "PBMC proliferative responses to PHA in immunized chimpanzees", "format": "in vivo, chimpanzee", "details": "animals 1045 and 1070; throughout the immunization period", "description": "Acpm=experimental cpm—control cpm."}, "[3]": {"assay": "DSP cross-linking and SDS-PAGE analysis of peptide complexes", "format": "physicochemical", "details": "DSP cross-linking in the presence of Triton-X 100 1%", "protocol": "Lanes D,E,F, and G show the effect on peptide MW when the peptide is cross-linked with 6.25 μg (D), 12.5 μg (E), 25 μg (F) and 50 μg (G) of DSP prior to SDS-PAGE. […] At present, the nature of the two bands in this peptide under reducing conditions is unknown; these two bands can be purified by cutting the bands out of preparative gels and can be analyzed by mass spectroscopy and sequenced. Lanes A and B show the results of crosslinking F-T1-SP10IIIB(A) peptide in the presence to Triton-X 100 1% and run under reducing (A) and non-reducing conditions (B)."}}}
{"molecule": "CC[C@H](C)[C@H](NC(=O)[C@@H](NC(=O)[C@@H](NC(=O)[C@H](Cc1ccccc1)NC(=O)[C@H](C)NC(=O)[C@H](CCCNC(=N)N)NC(=O)CNC(=O)[C@@H]1CCCN1C(=O)CNC(=O)[C@H](CCCNC(=N)N)NC(=O)[C@H](CCC(N)=O)NC(=O)[C@@H](NC(=O)[C@H](CCCNC(=N)N)NC(=O)[C@@H](NC(=O)[C@H](CO)NC(=O)[C@H](CCCCN)NC(=O)[C@H](CCCNC(=N)N)NC(=O)[C@@H](NC(=O)[C@H](CC(N)=O)NC(=O)[C@H](CC(N)=O)NC(=O)[C@H](CC(N)=O)NC(=O)[C@@H]1CCCN1C(=O)[C@H](CCCNC(=N)N)NC(=O)[C@@H](NC(=O)[C@H](CS)NC(=O)[C@H](C)NC(=O)[C@H](Cc1ccc(O)cc1)NC(=O)[C@H](CCSC)NC(=O)[C@H](C)NC(=O)[C@H](CCCCN)NC(=O)CNC(=O)[C@@H](NC(=O)[C@H](CCC(=O)O)NC(=O)[C@H](CCC(N)=O)NC(=O)[C@H](Cc1c[nH]c2ccccc12)NC(=O)[C@H](CCSC)NC(=O)[C@H](CC(N)=O)NC(=O)[C@@H](NC(=O)[C@@H](NC(=O)[C@H](CCC(N)=O)NC(=O)[C@H](CCCCN)NC(=O)[C@H](CC(C)C)NC(=O)[C@H](Cc1ccccc1)NC(=O)CNC(=O)[C@H](CC(C)C)NC(=O)[C@H](Cc1ccccc1)NC(=O)[C@H](CC(C)C)NC(=O)[C@H](C)NC(=O)CNC(=O)[C@@H](NC(=O)CNC(=O)[C@@H](NC(=O)[C@H](C)N)C(C)C)[C@@H](C)CC)[C@@H](C)CC)[C@@H](C)CC)C(C)C)[C@@H](C)O)[C@@H](C)O)[C@@H](C)CC)[C@@H](C)CC)C(C)C)[C@@H](C)O)C(=O)O", "note": "[F-T1-SP10IIIB(A)]", "values": [{"measurement": "lymphocyte count", "setting": "[1]; animal 1045, week 12", "result": "650 /mm^3"}, {"measurement": "B cells, % Change", "setting": "[1]; chimpanzee 1045, § p > .005", "result": "−40", "unit": "%§"}, {"measurement": "T cells, % Change", "setting": "[1]; chimpanzee 1045, † p > .001", "result": "−59", "unit": "%†"}, {"measurement": "Total Lymphocytes, % Change", "setting": "[1]; chimpanzee 1045, † p > .001", "result": "−55", "unit": "%†"}, {"measurement": "NK cells, % Change", "setting": "[1]; chimpanzee 1045, ‡ p > .02", "result": "−45", "unit": "%‡"}, {"measurement": "average drop of T cell levels", "setting": "[1]; chimpanzee 1045, p>0.001 as printed", "result": 59, "unit": "%"}, {"measurement": "B cells, During", "setting": "[1]; chimpanzee 1045", "result": 175, "unit": "Cells/mm^3"}, {"measurement": "NK cells, During", "setting": "[1]; chimpanzee 1045", "result": 61, "unit": "Cells/mm^3"}, {"measurement": "T cells, During", "setting": "[1]; chimpanzee 1045", "result": 1012, "unit": "Cells/mm^3"}, {"measurement": "Total Lymphocytes, During", "setting": "[1]; chimpanzee 1045", "result": 1426, "unit": "Cells/mm^3"}, {"measurement": "B cells, % Change", "setting": "[1]; chimpanzee 1070", "result": "−23", "unit": "%"}, {"measurement": "NK cells, % Change", "setting": "[1]; chimpanzee 1070", "result": "−36", "unit": "%"}, {"measurement": "Total Lymphocytes, % Change", "setting": "[1]; chimpanzee 1070", "result": "−30", "unit": "%"}, {"measurement": "T cells, % Change", "setting": "[1]; chimpanzee 1070, ‡ p > .02", "result": "−44", "unit": "%‡"}, {"measurement": "average drop of T cell levels", "setting": "[1]; chimpanzee 1070, p>0.02 as printed", "result": 44, "unit": "%"}, {"measurement": "B cells, During", "setting": "[1]; chimpanzee 1070", "result": 232, "unit": "Cells/mm^3"}, {"measurement": "NK cells, During", "setting": "[1]; chimpanzee 1070", "result": 306, "unit": "Cells/mm^3"}, {"measurement": "T cells, During", "setting": "[1]; chimpanzee 1070", "result": 1887, "unit": "Cells/mm^3"}, {"measurement": "Total Lymphocytes, During", "setting": "[1]; chimpanzee 1070", "result": 2768, "unit": "Cells/mm^3"}, {"measurement": "effect on circulating lymphocyte levels", "setting": "[1]; chimpanzees, F-derivatized peptide in 1045 and 1070, Th-B in 884 and 1028", "result": "induced decreases in absolute levels of circulating T cells"}, {"measurement": "PBMC PHA responses", "setting": "[2]", "result": "normal"}, {"measurement": "stability of high MW complexes to detergent", "setting": "[3]", "result": "resistant to disruption by this detergent"}]}
